Experimental data as given in patent US8552169B2, “Transcription factor-based biosensor” (The Regents of the University of California, priority 2009, dated 2013).

B1: BmoR: σ54-dependent transcription factor (activator protein) of P. butanovora, SEQ ID NO: 4, activated by C2-C8 alcohols (protein, listed as Pseudomonas butanova)
chain: MSKMQEFARLETVASMRRAVWDGNECQPGKVADVVLRSWTRCRAEGVVPNARQEFDPIPRTALDETVEAKRALILAAEPVVDALMEQMNDAPRMIILNDERGVVLLNQGNDTLLEDARRRAVRVGVCWDEHARGTNAMGTALAERRPVAIHGAEHYLESNTIFTCTAAPIYDPFGEFTGILDISGYAGDMGPVPIPFVQMAVQFIENQLFRQTFADCILLHFHVRPDFVGTMREGIAVLSREGTIVSMNRAGLKIAGLNLEAVADHRFDSVFDLNFGAFLDHVRQSAFGLVRVSLYGGVQVYARVEPGLRVPPRPAAHARPPRPAPRPLDSLDTGDAAVRLAIDRARRAIGRNLSILIQGETGAGKEVFAKHLHAESPRSKGPFVAVNCAAIPEGLIESELFGYEEGAFTGGRRKGNIGKVAQAHGGTLFLDEIGDMAPGLQTRLLRVLQDRAVMPLGGREPMPVDIALVCATHRNLRSLIAQGQFREDLYYRLNGLAISLPPLRQRSDLAALVNHILFQCCGGEPHYSVSPEVMTLFKRHAWPGNLRQLHNVLDAALAMLDDGHVIEPHHLPEDFVMEVDSGLRPIEEDGSTAAHRARQPASGSGPAKKLQDLALDAIEQAIEQNEGNISVAARQLGVSRTTIYRKLRQLSPTGCHRPAHWSQSRIGT

Legend:
pBMO promoter activity = assay type: cell-based, E. coli; conditions: for activation of pBMO-promoter expression by BmoR in response to alcohol: E. coli, pBMO::GFP reporter
Procedure: A pBMO-promoter::GFP reporter cassette is constructed. The pBMO-promoter comprises the nucleotide sequences from the −425 nucleotide to the +11 nucleotide. This section of the pBMO-promoter comprises the upstream activating sequence (UAS) to which BmoR binds. A deletion analysis is performed whereby the upstream sequence is deleted to produce reporter cassettes comprising of the −325 nucleotide to the +1 nucleotide fragment, the −225 nucleotide to the +1 nucleotide fragment, the −175 nucleotide to the +1 nucleotide fragment, the +1 nucleotide to the +1 nucleotide fragment, and no fragment (FIG. 3). The various reporter cassettes are introduced into an E. coli. also containing the bmoR gene operatively linked to the pBAD promoter or a pZT promoter. The pBAD promoter is taught by Guzman, L. M., et al., “Tight regulation, modulation, and high-level expression by vectors containing the arabinose PBAD promoter”, J. Bacteriol. 177(14):4121-4130 (1995), which is incorporated by reference.
Using the pBMO-promoter reporter cassette comprising of the −325 nucleotide to the +1 nucleotide fragment, the E. coli strain is analyzed for the optimum temperature for pBMO promoter activity using different concentrations of butan-1-ol.
Using the pBMO-promoter reporter cassette comprising of the −325 nucleotide to the +1 nucleotide fragment, the E. coli strain is analyzed for pBMO promoter activity in response to different alcohols: butan-1-ol (FIG. 5), ethanol (FIG. 6), 1-propanol (FIG. 6), 2-propanol (FIG. 6), pentanol (FIG. 5), and hexanol (FIG. 5). From an overnight culture harboring a plasmid containing GFP under control of pBMO and BmoR under control of pZT 5 mL cultures of rich media were inoculated (1.5% v/v). Cultures are grown at 37° C., 200 rpm, until reaching an optical density (OD600) of 0.25 and induced with 57.5 ng/mL anhydrotetracyline. The cultures are than grown at 25° C., 200 rpm, until reaching an OD600=0.80 at which point they are diluted to an OD600=0.20 in media containing a range of alcohol concentrations. The culture tubes are sealed with parafilm and grown at 25° C., 200 rpm, for 18 hours. 150 μl culture samples are quantified for GFP fluorescence on a 96-well plate reader.

[1] = test system: E. coli cultures harboring the butanol biosensor controlling TetA expression; conditions: media with multiple concentrations of butanol and tetracycline; N=4
Procedure: The BmoR transcription factor is used to construct a genetic selection for the presence of butanol in the media.
Maximal growth rates are calculated by fitting curves to the Gompertz equation. […] N=4, mean±standard deviation.

[2] = test system: 300-nucleotide DNA fragment upstream of the pBMO-promoter; assay: Gel mobility shift assay; assay type: binding; conditions: purified His-tagged BmoR, DIG Gel Shift Kit
Excerpt: A DIG Gel Shift Kit (Roche Applied Science, Indianapolis, Ind.) is used according to the manufacturer's instructions.

Row | Molecule | activation of pBMO-promoter expression by BmoR in response to alcohol (pBMO promoter activity) | further results
1 | CCCCCCO [1-hexanol] | capable of activating pBMO-promoter expression | –
2 | CCCCCO [1-pentanol] | capable of activating pBMO-promoter expression | –
3 | CCCO [1-propanol] | capable of activating pBMO-promoter expression | –
4 | CC(C)O [2-propanol] | capable of activating pBMO-promoter expression | –
5 | CCC(C)O (stereo not drawn) [butan-1-ol] | capable of activating pBMO-promoter expression | butanol dependent growth (maximal growth rate) [1]: strong butanol dependent growth; activation of the reporter gene (optimum condition) (pBMO promoter activity; cultured at 25° C. with 0.5% of butan-1-ol by volume, compared to the other conditions tested): the activation of the reporter gene is the strongest
6 | CCO [ethanol] | capable of activating pBMO-promoter expression | –
7 | B1 | – | binding of BmoR upstream of the pBMO-promoter (band shift) [2]: A band shift is observed
